This passage reports IC50 results from US11685746B2, “Heteroaryl compounds for treating Huntington's disease” (PTC THERAPEUTICS, INC., priority 2018, dated 2023).

For this assay, the system named is Endogenous Huntingtin Protein. Kind of assay: Endogenous Huntingtin Protein Assay (MSD plates, MW1 or MAB2166 capture antibody). It is filed as cell-based. Conditions: Table 1. The gist of the method: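 Endogenous huntingtin was captured overnight at 4° C on wells coated with 1 μg/mL MW1 (polyglutamine-specific) or MAB2166. Detection used rabbit #5656S and then goat anti-rabbit SULFO-TAG, both at 0.25 μg/mL and 1 h at room temperature. Plates were imaged on the MSD system in read buffer T.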

The pIC50 is the negative decadic logarithm of the IC50, by convention in mol/L. Read a low pIC50 as a high IC50.

Each structure is given as a SMILES string. pIC50: −log10 of the molar value.

`CN(c1nc2sc(-n3ccc(-n4cc(F)cn4)cc3=O)nc2s1)[C@@H]1C[C@H]2CC[C@@H](C1)N2` [Compound 149, 1-(5-{[(1R,3s,5S)-8-azabicyclo[3.2.1]octan-3-yl](methyl)amino}[1,3]thiazolo[5,4-d][1,3]thiazol-2-yl)-4-(4-fluoro-1H-pyrazol-1-yl)pyridin-2(1H)-one] gave a pIC50 of at least 7.00. `CC(C)(C)NC1CCN(c2nc3sc(-c4ncc(-c5cn[nH]c5)cn4)nc3s2)C1` (stereo not shown) [Compound 150, N-tert-butyl-1-{5-[5-(1H-pyrazol-4-yl)pyrimidin-2-yl][1,3]thiazolo[5,4-d][1,3]thiazol-2-yl}pyrrolidin-3-amine] showed a negative-log IC50 (pIC50) of 5.52 to 6.00. `CC(C)(C)NC1CCN(c2nc3sc(-n4ccc(-c5cn[nH]c5)cc4=O)nc3s2)C1` (stereo not shown) [Compound 151, 1-{5-[3-(tert-butylamino)pyrrolidin-1-yl][1,3]thiazolo[5,4-d][1,3]thiazol-2-yl}-4-(1H-pyrazol-4-yl)pyridin-2(1H)-one] showed a pIC50 of 6.30 to 7.00.

Regarding `CC1CC(N(C)c2nc3sc(-c4ncc(-c5cn[nH]c5)c5cc[nH]c45)nc3s2)CCN1C` (stereo not shown) [Compound 152, N-(1,2-dimethylpiperidin-4-yl)-N-methyl-5-[4-(1H-pyrazol-4-yl)-1H-pyrrolo[2,3-c]pyridin-7-yl][1,3]thiazolo[5,4-d][1,3]thiazol-2-amine], the pIC50 is at least 7.00.

Regarding `CN(c1nc2sc(-n3cnc(-c4cn[nH]c4)cc3=O)nc2s1)[C@@H]1C[C@H]2CC[C@@H](C1)N2C` [Compound 153, 3-(5-{methyl[(1R,3s,5S)-8-methyl-8-azabicyclo[3.2.1]octan-3-yl]amino}[1,3]thiazolo[5,4-d][1,3]thiazol-2-yl)-6-(1H-pyrazol-4-yl)pyrimidin-4(3H)-one], the pIC50 is at least 7.00. `CN(c1nc2sc(-c3ncc(-c4cn[nH]c4)c4cc[nH]c34)nc2s1)[C@H]1C[C@]2(C)CC[C@](C)(C1)N2` [Compound 154, N-[(1R,3s,5S)-1,5-dimethyl-8-azabicyclo[3.2.1]octan-3-yl]-N-methyl-5-[4-(1H-pyrazol-4-yl)-1H-pyrrolo[2,3-c]pyridin-7-yl][1,3]thiazolo[5,4-d][1,3]thiazol-2-amine] gave a pIC50 of at least 7.00. `CN(c1nc2sc(-n3ccc(-c4cn[nH]c4)cc3=O)nc2s1)[C@@H]1CCCNC1` [Compound 155, 1-(5-{methyl[(3R)-piperidin-3-yl]amino}[1,3]thiazolo[5,4-d][1,3]thiazol-2-yl)-4-(1H-pyrazol-4-yl)pyridin-2(1H)-one] showed a pIC50 of 6.30 to 7.00.

In turn, `CC1(C)CC(Oc2nc3sc(-n4ccc(-c5cn[nH]c5)cc4=O)nc3s2)CC(C)(C)N1` [Compound 156, 4-(1H-pyrazol-4-yl)-1-{5-[(2,2,6,6-tetramethylpiperidin-4-yl)oxy][1,3]thiazolo[5,4-d][1,3]thiazol-2-yl}pyridin-2(1H)-one] gave a pIC50 of at least 7.00. In turn, `CC1CC(N(C)c2nc3sc(-n4ccc5ccc(O)nc54)nc3s2)CCN1C` (stereo not shown) [Compound 157, 1-{5-[(1,2-dimethylpiperidin-4-yl)(methyl)amino][1,3]thiazolo[5,4-d][1,3]thiazol-2-yl]-1H-pyrrolo[2,3-b]pyridin-6-ol] gave a pIC50 of 6.30 to 7.00. `CN(c1nc2sc(-c3cc(F)c(-c4cn[nH]c4)cc3F)nc2s1)[C@@H]1C[C@H]2CC[C@@H](C1)N2` [Compound 158, N-[(1R,3s,5S)-8-azabicyclo[3.2.1]octan-3-yl]-5-[2,5-difluoro-4-(1H-pyrazol-4-yl)phenyl]-N-methyl[1,3]thiazolo[5,4-d][1,3]thiazol-2-amine]: the pIC50 is at least 7.00. The compound `CN(c1nc2sc(-c3ncc(-c4cn[nH]c4)c4cc[nH]c34)nc2s1)C1CC(C)(C)NC(C)(C)C1` [Compound 159, N-methyl-5-[4-(1H-pyrazol-4-yl)-1H-pyrrolo[2,3-c]pyridin-7-yl]-N-(2,2,6,6-tetramethylpiperidin-4-yl)[1,3]thiazolo[5,4-d][1,3]thiazol-2-amine] gave a pIC50 of at least 7.00.

`CN(c1nc2sc(-c3nccc4cc[nH]c34)nc2s1)[C@@H]1C[C@H]2CC[C@@H](C1)N2` [Compound 160, N-[(1R,3s,5S)-8-azabicyclo[3.2.1]octan-3-yl]-N-methyl-5-(1H-pyrrolo[2,3-c]pyridin-7-yl)[1,3]thiazolo[5,4-d][1,3]thiazol-2-amine]: the pIC50 was 6.30 to 7.00.

`CN(c1nc2sc(-c3ncc(-c4cn[nH]c4)cn3)nc2s1)[C@H]1CCCNC1` [Compound 161, N-methyl-N-[(3S)-piperidin-3-yl]-5-[5-(1H-pyrazol-4-yl)pyrimidin-2-yl][1,3]thiazolo[5,4-d][1,3]thiazol-2-amine]: the pIC50 is 6.30 to 7.00. With `CN(c1nc2sc(-c3ncc(-c4cn[nH]c4)cn3)nc2s1)C1CC(C)(C)NC(C)(C)C1` [Compound 162, N-methyl-5-[5-(1H-pyrazol-4-yl)pyrimidin-2-yl]-N-(2,2,6,6-tetramethylpiperidin-4-yl)[1,3]thiazolo[5,4-d][1,3]thiazol-2-amine], the pIC50 is at least 7.00. `CN(c1nc2sc(-c3cnc(-c4cn[nH]c4)cn3)nc2s1)C1CC(C)(C)NC(C)(C)C1` [Compound 163, N-methyl-5-[5-(1H-pyrazol-4-yl)pyrazin-2-yl]-N-(2,2,6,6-tetramethylpiperidin-4-yl)[1,3]thiazolo[5,4-d][1,3]thiazol-2-amine]: the pIC50 is at least 7.00. As to `CN(c1nc2sc(-c3cnc(-c4cn[nH]c4)cn3)nc2s1)[C@@H]1C[C@H]2CC[C@@H](C1)N2` [Compound 164, N-[(1R,3s,5S)-8-azabicyclo[3.2.1]octan-3-yl]-N-methyl-5-[5-(1H-pyrazol-4-yl)pyrazin-2-yl][1,3]thiazolo[5,4-d][1,3]thiazol-2-amine], the pIC50 is at least 7.00. Regarding `CCCN1[C@@H]2CC[C@H]1C[C@H](N(C)c1nc3sc(-n4ccc(-c5cn[nH]c5)cc4=O)nc3s1)C2` [Compound 165, 1-(5-{methyl[(1R,3s,5S)-8-propyl-8-azabicyclo[3.2.1]octan-3-yl]amino}[1,3]thiazolo[5,4-d][1,3]thiazol-2-yl)-4-(1H-pyrazol-4-yl)pyridin-2(1H)-one], the negative logarithm of the IC50 (pIC50) was at least 7.00. As to `CCN1[C@@H]2CC[C@H]1C[C@H](N(C)c1nc3sc(-n4ccc(-c5cn[nH]c5)cc4=O)nc3s1)C2` [Compound 166, 1-(5-{[(1R,3s,5S)-8-ethyl-8-azabicyclo[3.2.1]octan-3-yl](methyl)amino}[1,3]thiazolo[5,4-d][1,3]thiazol-2-yl)-4-(1H-pyrazol-4-yl)pyridin-2(1H)-one], the pIC50 was at least 7.00.

`CN(c1nc2sc(-c3ccc(-c4cn[nH]c4)nn3)nc2s1)C1CC(C)(C)NC(C)(C)C1` [Compound 167, N-methyl-5-[6-(1H-pyrazol-4-yl)pyridazin-3-yl]-N-(2,2,6,6-tetramethylpiperidin-4-yl)[1,3]thiazolo[5,4-d][1,3]thiazol-2-amine] gave a pIC50 of 6.30 to 7.00. The figure for `CN(c1nc2sc(-c3ccc(-c4cn[nH]c4)nn3)nc2s1)[C@@H]1C[C@H]2CC[C@@H](C1)N2` [Compound 168, N-[(1R,3s,5S)-8-azabicyclo[3.2.1]octan-3-yl]-N-methyl-5-[6-(1H-pyrazol-4-yl)pyridazin-3-yl][1,3]thiazolo[5,4-d][1,3]thiazol-2-amine] is at least 7.00; for `CN(c1nc2sc(-n3ccc(-c4cn[nH]c4)cc3=O)nc2s1)[C@H]1CCCNC1` [Compound 169, 1-(5-{methyl[(3S)-piperidin-3-yl]amino}[1,3]thiazolo[5,4-d][1,3]thiazol-2-yl)-4-(1H-pyrazol-4-yl)pyridin-2(1H)-one] it is at least 7.00.

Turning to `CN(c1nc2sc(-n3cnc(-c4cn[nH]c4)c3)nc2s1)[C@@H]1C[C@H]2CC[C@@H](C1)N2` [Compound 170, N-[(1R,3s,5S)-8-azabicyclo[3.2.1]octan-3-yl]-N-methyl-5-[4-(1H-pyrazol-4-yl)-1H-imidazol-1-yl][1,3]thiazolo[5,4-d][1,3]thiazol-2-amine], the negative-log IC50 (pIC50) is 6.30 to 7.00. `CN(c1nc2sc(-n3ccc(Br)cc3=O)nc2s1)[C@@H]1C[C@H]2CC[C@@H](C1)N2` [Compound 171, 1-(5-{[(1R,3s,5S)-8-azabicyclo[3.2.1]octan-3-yl](methyl)amino}[1,3]thiazolo[5,4-d][1,3]thiazol-2-yl)-4-bromopyridin-2(1H)-one]: the pIC50 was at least 7.00. The figure for `CN(c1nc2sc(-n3cnc(-c4cn[nH]c4)cc3=O)nc2s1)[C@@H]1C[C@H]2CC[C@@H](C1)N2` [Compound 172, 3-(5-{[(1R,3s,5S)-8-azabicyclo[3.2.1]octan-3-yl](methyl)amino}[1,3]thiazolo[5,4-d][1,3]thiazol-2-yl)-6-(1H-pyrazol-4-yl)pyrimidin-4(3H)-one] is at least 7.00. Consider `CN(c1nc2sc(-c3ccc(-c4cn[nH]c4)nc3)nc2s1)[C@@H]1C[C@H]2CC[C@@H](C1)N2` [Compound 173, N-[(1R,3s,5S)-8-azabicyclo[3.2.1]octan-3-yl]-N-methyl-5-[6-(1H-pyrazol-4-yl)pyridin-3-yl][1,3]thiazolo[5,4-d][1,3]thiazol-2-amine], for which the pIC50 is at least 7.00. As for `CN(c1nc2sc(-c3ccc(-c4cn[nH]c4)cn3)nc2s1)[C@@H]1C[C@H]2CC[C@@H](C1)N2` [Compound 174, N-[(1R,3s,5S)-8-azabicyclo[3.2.1]octan-3-yl]-N-methyl-5-[5-(1H-pyrazol-4-yl)pyridin-2-yl][1,3]thiazolo[5,4-d][1,3]thiazol-2-amine], the pIC50 is at least 7.00. `CN(c1nc2sc(-c3cnc(-c4cn[nH]c4)nc3)nc2s1)[C@@H]1C[C@H]2CC[C@@H](C1)N2` [Compound 175, N-[(1R,3s,5S)-8-azabicyclo[3.2.1]octan-3-yl]-N-methyl-5-[2-(1H-pyrazol-4-yl)pyrimidin-5-yl][1,3]thiazolo[5,4-d][1,3]thiazol-2-amine] showed a pIC50 of at least 7.00. Compound `Cn1cc2cc(-c3nc4sc(N5CC6(CCNCC6)C5)nc4s3)cc(F)c2n1` [Compound 176, 5-[5-(2,7-diazaspiro[3.5]nonan-2-yl)[1,3]thiazolo[5,4-d][1,3]thiazol-2-yl]-7-fluoro-2-methyl-2H-indazole] gave a pIC50 of 6.30 to 7.00.
